Test results as given in patent publication US20250163104A1, “MACROCYCLIC IMMUNOMODULATORS” (priority 2021, published 2025).
Where a SMILES comes first, the peptide text is derived from it. Bridges are numbered along the chain shown (N, C = ends). [ ]: non-standard residue; d: D form. The star is where a group is joined. ξ: configuration not given here. Bip(4'-NHAc) = CC(=O)Nc1ccc(-c2ccc(C[C@H](N)C(=O)O)cc2)cc1; Phe(3-CF3) = N[C@@H](Cc1cccc(C(F)(F)F)c1)C(=O)O; Ala(morpholin-4-yl) = N[C@@H](CN1CCOCC1)C(=O)O; Phe(4-CONH2) = NC(=O)c1ccc(C[C@H](N)C(=O)O)cc1; Phe(4-COOH) = N[C@@H](Cc1ccc(C(=O)O)cc1)C(=O)O; Bip = N[C@@H](Cc1ccc(-c2ccccc2)cc1)C(=O)O; Phe(4-Br) = N[C@@H](Cc1ccc(Br)cc1)C(=O)O; Phe(4-Cl) = N[C@@H](Cc1ccc(Cl)cc1)C(=O)O; Phe(3-Me) = Cc1cccc(C[C@H](N)C(=O)O)c1; Val(3-OH) = CC(C)(O)[C@H](N)C(=O)O; 4Pal = N[C@@H](Cc1ccncc1)C(=O)O; 2Thi = N[C@@H](Cc1cccs1)C(=O)O; Cha = N[C@@H](CC1CCCCC1)C(=O)O; Cit = NC(=O)NCCC[C@H](N)C(=O)O; dCha = N[C@H](CC1CCCCC1)C(=O)O; Thr(3ξ) = CC(O)[C@H](N)C(=O)O; Carboxymethyl = O=C(O)C*; Orn = NCCC[C@H](N)C(=O)O; Dab = NCC[C@H](N)C(=O)O; Dap = NC[C@H](N)C(=O)O; X2 = Cc1cnc(CN*)cn1; Propargyl = C#CC*

What follows are compounds tested against T1, human PD-1 / PD-L1-Ig binding on Jurkat cell line over-expressing human PD-1 (Jurkat-PD-1) (Homo sapiens, UniProt Q15116) (assay: Jurkat-PD-1 Cell Binding High-Content Screening Assay (CBA)). Details: Jurkat HPD1_PDL1 IC50, Jurkat-PD-1 cells, PE-labeled PD-L1-Ig 20 nM final.
T1 construct: expressed in transfected cells; host or cells: Jurkat
T1 sequence (Q15116 25-288): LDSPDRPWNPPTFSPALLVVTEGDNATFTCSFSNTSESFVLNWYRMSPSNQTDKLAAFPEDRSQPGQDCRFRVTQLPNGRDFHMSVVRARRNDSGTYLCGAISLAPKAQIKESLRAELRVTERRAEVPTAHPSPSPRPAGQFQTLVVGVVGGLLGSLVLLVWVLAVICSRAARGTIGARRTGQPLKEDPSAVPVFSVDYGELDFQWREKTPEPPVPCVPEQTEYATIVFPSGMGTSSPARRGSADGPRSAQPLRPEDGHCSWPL
Assay type: cell-based
Procedure, shortened: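 Compounds were preincubated with Jurkat-hPD-1 cells in DMEM plus 10% fetal calf serum for 2 h at 37° C. Phycoerythrin-labeled PD-L1-Ig (20 nM final) was then added for 1 hour. Cells were fixed in 4% paraformaldehyde with Hoechst 33342, and bound fluorescence was quantified by high-content imaging.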

SMILES | IC50 [nM]
CC(C)C[C@H]1NC(=O)[C@H](CCCN)NC(=O)[C@H](Cc2ccc(OCc3ccccc3)cc2)NC(=O)[C@H](Cc2ccc(-c3ccccc3)cc2)NC(=O)[C@H](C(C)C)NC(=O)[C@H](Cc2c[nH]c3ccccc23)NC(=O)[C@H](CC(=O)O)NC(=O)[C@H](Cc2ccc(OCC(=O)O)cc2)NC(=O)[C@H](CN)NC(=O)CSC[C@@H](C(=O)N[C@@H](C)C(N)=O)NC(=O)[C@H]([C@@H](C)O)NC(=O)[C@H](C(C)C)NC(=O)[C@H](CC2CCCCC2)NC(=O)[C@H](CCN)NC1=O [Compound 1530] | 94.9

Same assay, conditions: Jurkat-PD-1 cells, PE-labeled PD-L1-Ig 20 nM final; read-out: Jurkat HPD1_PDL1 IC50

SMILES | IC50 [nM]
Cc1cccc(C[C@@H]2NC(=O)[C@H](CC(=O)O)NC(=O)[C@H](Cc3ccc(OCC(=O)O)cc3)NC(=O)[C@H](CN)NC(=O)CSC[C@@H](C(=O)N[C@@H](C)C(=O)NCc3cnc(C)cn3)NC(=O)[C@H](CN)NC(=O)[C@H](C(C)C)NC(=O)[C@H](CC3CCCCC3)NC(=O)[C@H](CCN)NC(=O)[C@@H](CC(C)C)NC(=O)[C@H](CCCN)NC(=O)[C@H](CCCNC(N)=O)NC(=O)[C@H](Cc3ccc(-c4ccccc4)cc3)NC(=O)[C@H](C(C)C)NC2=O)c1 [Compound 2019] ({CH2CO}-[Dap]Y(Carboxymethyl)D[Phe(3-Me)]V[Bip][Cit][Orn][dL][Dab][Cha]V[Dap]CA-X2; thioether N-14) | 12.8
Cc1cccc(C[C@@H]2NC(=O)[C@H](CC(=O)O)NC(=O)[C@H](Cc3ccc(OCC(=O)O)cc3)NC(=O)[C@H](CCN)NC(=O)CSC[C@@H](C(=O)N[C@@H](CCN)C(N)=O)NC(=O)[C@H](CO)NC(=O)[C@H](C(C)(C)O)NC(=O)[C@H](CC3CCCCC3)NC(=O)[C@H](Cc3cnc[nH]3)NC(=O)[C@@H](CC(C)C)NC(=O)[C@H](CCCN)NC(=O)[C@H](Cc3ccc(OCC(=O)O)cc3)NC(=O)[C@H](Cc3ccc(-c4ccccc4)cc3)NC(=O)[C@H](Cc3ccc(OCC(=O)O)cc3)NC2=O)c1 [Compound 2653] ({CH2CO}-[Dab]Y(Carboxymethyl)D[Phe(3-Me)]Y(Carboxymethyl)[Bip]Y(Carboxymethyl)[Orn][dL]H[Cha][Val(3-OH)]SC[Dab]-NH2; thioether N-14) | 7.6
CC(C)C[C@@H]1NC(=O)[C@H](Cc2c[nH]c3ccccc23)NC(=O)[C@H](CC(=O)O)NC(=O)[C@H](Cc2ccc(OCC(=O)O)cc2)NC(=O)[C@H](C(C)O)NC(=O)CSC[C@@H](C(N)=O)NC(=O)[C@H](CO)NC(=O)[C@H](C(C)C)NC(=O)[C@H](CC2CCCCC2)NC(=O)[C@H](Cc2cnc[nH]2)NC(=O)[C@@H](CC(C)C)NC(=O)[C@H](Cc2cnc[nH]2)NC(=O)[C@H](C(C)C)NC(=O)[C@H](Cc2ccc(-c3ccccc3)cc2)NC1=O (stereo partly drawn) [Compound 2604] ({CH2CO}-[Thr(3ξ)]Y(Carboxymethyl)DWL[Bip]VH[dL]H[Cha]VSC-NH2; thioether N-14) | 234
CC(C)[C@@H]1NC(=O)[C@H](Cc2c[nH]c3ccccc23)NC(=O)[C@H](CC(=O)O)NC(=O)[C@H](Cc2ccncc2)NC(=O)[C@H](CN)NC(=O)CSC[C@@H](C(=O)N[C@@H](C)C(N)=O)NC(=O)[C@H]([C@@H](C)O)NC(=O)[C@H](C(C)C)NC(=O)[C@H](CC2CCCCC2)NC(=O)[C@H](CCN)NC(=O)[C@@H](CC2CCCCC2)NC(=O)[C@H](CCCN)NC(=O)[C@H](CCCNC(N)=O)NC(=O)[C@H](Cc2ccc(-c3ccccc3)cc2)NC1=O [Compound 1646] ({CH2CO}-[Dap][4Pal]DWV[Bip][Cit][Orn][dCha][Dab][Cha]VTCA-NH2; thioether N-14) | 28.1
Cc1cccc(C[C@@H]2NC(=O)[C@H](CC(=O)O)NC(=O)[C@H](Cc3ccc(OCC(=O)O)cc3)NC(=O)[C@H](Cc3ccncc3)NC(=O)CSC[C@@H](C(=O)N[C@H](CC(N)=O)C(N)=O)NC(=O)[C@H](CO)NC(=O)[C@H](C(C)(C)O)NC(=O)[C@H](CC3CCCCC3)NC(=O)[C@H](CCN)NC(=O)[C@@H](CC(C)C)NC(=O)[C@H](CCCN)NC(=O)[C@H](Cc3ccc(O)cc3)NC(=O)[C@H](Cc3ccc(-c4ccccc4)cc3)NC(=O)[C@H](Cc3ccc(C(N)=O)cc3)NC2=O)c1 [Compound 2657] ({CH2CO}-[4Pal]Y(Carboxymethyl)D[Phe(3-Me)][Phe(4-CONH2)][Bip]Y[Orn][dL][Dab][Cha][Val(3-OH)]SC[dN]-NH2; thioether N-14) | 8.9
CC(=O)Nc1ccc(-c2ccc(C[C@@H]3NC(=O)[C@H](CN)NC(=O)CSC[C@@H](C(=O)N[C@@H](C)C(N)=O)NC(=O)[C@H]([C@@H](C)O)NC(=O)[C@H](C(C)C)NC(=O)[C@H](CC4CCCCC4)NC(=O)[C@H](CCN)NC(=O)[C@@H](CC(C)C)NC(=O)[C@H](CCCN)NC(=O)[C@H](CCCNC(N)=O)NC(=O)[C@H](Cc4ccc(-c5ccccc5)cc4)NC(=O)[C@H](C(C)C)NC(=O)[C@H](Cc4c[nH]c5ccccc45)NC(=O)[C@H](CC(=O)O)NC3=O)cc2)cc1 [Compound 2124] ({CH2CO}-[Dap][Bip(4'-NHAc)]DWV[Bip][Cit][Orn][dL][Dab][Cha]VTCA-NH2; thioether N-14) | 22.6
C#CCOc1ccc(C[C@@H]2NC(=O)[C@H](CN)NC(=O)CSC[C@@H](C(=O)N[C@@H](CCN)C(N)=O)NC(=O)[C@H](CCC(=O)O)NC(=O)[C@H](C(C)C)NC(=O)[C@H](CC3CCCCC3)NC(=O)[C@H](CCN)NC(=O)[C@@H](CC(C)C)NC(=O)[C@H](CCCN)NC(=O)[C@H](Cc3ccc(OCC(=O)O)cc3)NC(=O)[C@H](Cc3ccc(-c4ccccc4)cc3)NC(=O)[C@H](Cc3ccc(OCC(=O)O)cc3)NC(=O)[C@H](Cc3cccc(C)c3)NC(=O)[C@H](CC(=O)O)NC2=O)cc1 [Compound 1819] ({CH2CO}-[Dap]Y(Propargyl)D[Phe(3-Me)]Y(Carboxymethyl)[Bip]Y(Carboxymethyl)[Orn][dL][Dab][Cha]VEC[Dab]-NH2; thioether N-14) | 3.7
Cc1cccc(C[C@@H]2NC(=O)[C@H](CC(=O)O)NC(=O)[C@H](Cc3ccc(OCC(=O)O)cc3)NC(=O)[C@H](CN)NC(=O)CSC[C@@H](C(N)=O)NC(=O)[C@H](CCC(N)=O)NC(=O)[C@H](C(C)C)NC(=O)[C@H](CC3CCCCC3)NC(=O)[C@H](CCN)NC(=O)[C@@H](CC(C)C)NC(=O)[C@H](CCCN)NC(=O)[C@H](Cc3ccc(OCC(=O)O)cc3)NC(=O)[C@H](Cc3ccc(-c4ccccc4)cc3)NC(=O)[C@H](Cc3ccc(OCC(=O)O)cc3)NC2=O)c1 [Compound 1782] ({CH2CO}-[Dap]Y(Carboxymethyl)D[Phe(3-Me)]Y(Carboxymethyl)[Bip]Y(Carboxymethyl)[Orn][dL][Dab][Cha]VQC-NH2; thioether N-14) | 23.6
CC(C)C[C@H]1NC(=O)[C@H](CCCN)NC(=O)[C@H](Cc2ccc(C(=O)O)cc2)NC(=O)[C@H](Cc2ccc(-c3ccccc3)cc2)NC(=O)[C@H](Cc2ccc(Br)cc2)NC(=O)[C@H](Cc2cccc(C(F)(F)F)c2)NC(=O)[C@H](CC(=O)O)NC(=O)[C@H](Cc2ccc(C(=O)O)cc2)NC(=O)[C@H](CN2CCOCC2)NC(=O)CSC[C@@H](C(=O)N[C@@H](CCN)C(N)=O)NC(=O)[C@H](CCC(=O)O)NC(=O)[C@H](C(C)C)NC(=O)[C@H](CC2CCCCC2)NC(=O)[C@H](CCN)NC1=O [Example 2750] ({CH2CO}-[Ala(morpholin-4-yl)][Phe(4-COOH)]D[Phe(3-CF3)][Phe(4-Br)][Bip][Phe(4-COOH)][Orn][dL][Dab][Cha]VEC[Dab]-NH2; thioether N-14) | 200
Cc1cccc(C[C@@H]2NC(=O)[C@H](CC(=O)O)NC(=O)[C@H](Cc3ccc(OCC(=O)O)cc3)NC(=O)[C@H]([C@@H](C)O)NC(=O)CSC[C@@H](C(N)=O)NC(=O)[C@H](CCC(=O)O)NC(=O)[C@H](C(C)C)NC(=O)[C@H](CC3CCCCC3)NC(=O)[C@H](CCN)NC(=O)[C@@H](CC(C)C)NC(=O)[C@H](CCCN)NC(=O)[C@H](Cc3ccc(OCC(=O)O)cc3)NC(=O)[C@H](Cc3ccc(-c4ccccc4)cc3)NC(=O)[C@H](Cc3ccc(OCC(=O)O)cc3)NC2=O)c1 [Compound 1801] ({CH2CO}-TY(Carboxymethyl)D[Phe(3-Me)]Y(Carboxymethyl)[Bip]Y(Carboxymethyl)[Orn][dL][Dab][Cha]VEC-NH2; thioether N-14) | 84.4
CC(C)C[C@H]1NC(=O)[C@H](CCCN)NC(=O)[C@H](CCC(=O)O)NC(=O)[C@H](Cc2ccc(-c3ccccc3)cc2)NC(=O)[C@H](C(C)C)NC(=O)[C@H](Cc2cccs2)NC(=O)[C@H](CC(=O)O)NC(=O)[C@H](Cc2ccncc2)NC(=O)[C@H](Cc2ccc(OCC(=O)O)cc2)NC(=O)CSC[C@@H](C(=O)N[C@@H](C)C(N)=O)NC(=O)[C@H]([C@@H](C)O)NC(=O)[C@H](C(C)C)NC(=O)[C@H](CC2CCCCC2)NC(=O)[C@H](CCN)NC1=O [Compound 2202] ({CH2CO}-Y(Carboxymethyl)[4Pal]D[2Thi]V[Bip]E[Orn][dL][Dab][Cha]VTCA-NH2; thioether N-14) | 26.5
CC(C)C[C@H]1NC(=O)[C@H](CCCN)NC(=O)[C@H](CCCNC(N)=O)NC(=O)[C@H](Cc2ccc(-c3ccccc3)cc2)NC(=O)[C@H](C(C)C)NC(=O)[C@H](Cc2c[nH]c3ccccc23)NC(=O)[C@H](CC(=O)O)NC(=O)[C@H](Cc2ccc(Cl)cc2)NC(=O)[C@H](CN)NC(=O)CSC[C@@H](C(=O)N[C@@H](C)C(N)=O)NC(=O)[C@H]([C@@H](C)O)NC(=O)[C@H](C(C)C)NC(=O)[C@H](CC2CCCCC2)NC(=O)[C@H](CCN)NC1=O [Compound 2102] ({CH2CO}-[Dap][Phe(4-Cl)]DWV[Bip][Cit][Orn][dL][Dab][Cha]VTCA-NH2; thioether N-14) | 45.6
CC(C)C[C@@H]1NC(=O)[C@H](CCN)NC(=O)[C@@H](CC(C)C)NC(=O)[C@H](CCN)NC(=O)[C@H](C(C)C)NC(=O)[C@H](Cc2ccc(-c3ccccc3)cc2)NC(=O)[C@H](C(C)C)NC(=O)[C@H](Cc2c[nH]c3ccccc23)NC(=O)[C@H](CC(=O)O)NC(=O)[C@H](Cc2ccc(O)cc2)NC(=O)[C@H](CC(N)=O)NC(=O)CSC[C@@H](C(=O)N[C@@H](C)C(N)=O)NC(=O)[C@H]([C@@H](C)O)NC(=O)[C@H](C(C)C)NC1=O [Compound 1029] ({CH2CO}-NYDWV[Bip]V[Dab][dL][Dab]LVTCA-NH2; thioether N-14) | 5.4
